Measurements reported in the supplement of paper PMC6045584.
± gives the standard deviation of the averaged measurements.

Tests used:
[1] = compound: C[C@@H](Oc1cc(-c2cnn(C3CCNCC3)c2)cnc1N)c1c(Cl)ccc(F)c1Cl; experiment: surviving fraction relative to DMSO-only wells; higher = less growth inhibition; details: exposure time: 5 days
Outline: (§1)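 In 384-well plates, 250–500 log-phase tumour cells per well were given 24 hours before five days of continuous exposure to inhibitors at 0.5, 1, 5, 10, 50, 100, 500 and 1000 nM. Surviving fraction is luminescence from CellTiter-Glo, normalised to the median of wells containing DMSO alone. Reading took place after 10 minutes at room temperature.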

[2] = compound: CNC(=O)c1cc(Oc2ccc(NC(=O)Nc3ccc(Cl)c(C(F)(F)F)c3)cc2)ccn1 [SORAFENIB]; experiment: as above; details: exposure time: 5 days
Outline: as §1

| Test System | surviving fraction ([1]; 0.5 nM) | surviving fraction ([1]; 1 nM) | surviving fraction ([1]; 5 nM) | surviving fraction ([1]; 10 nM) | surviving fraction ([1]; 500 nM) | surviving fraction ([1]; 1000 nM) | surviving fraction ([2]; 0.5 nM) | surviving fraction ([2]; 5 nM) | surviving fraction ([2]; 10 nM) | surviving fraction ([2]; 50 nM) | surviving fraction ([2]; 100 nM) | surviving fraction ([2]; 500 nM) | surviving fraction ([1]; 50 nM) | surviving fraction ([1]; 100 nM) | surviving fraction ([2]; 1 nM) | surviving fraction ([2]; 1000 nM) |
| --- | --- | --- | --- | --- | --- | --- | --- | --- | --- | --- | --- | --- | --- | --- | --- | --- |
| 22RV1 PROSTATE | 0.954 ± 0.079 | 1.01 ± 0.02 | 0.958 ± 0.022 | 0.944 ± 0.033 | 0.59 ± 0.078 | 0.406 ± 0.027 | 0.995 ± 0.029 | 0.974 ± 0.014 | 0.955 ± 0.025 | 1.09 ± 0.034 | 1.09 ± 0.064 | 1.11 ± 0.043 | – | – | – | – |
| 93VU HEADNECK | 0.809 ± 0.025 | 0.816 ± 0.02 | 0.835 ± 0.043 | 0.866 ± 0.068 | 0.77 ± 0.02 | 0.521 ± 0.068 | 0.961 ± 0.081 | 1.12 ± 0.051 | 1.19 ± 0.11 | 1.22 ± 0.1 | 1.17 ± 0.07 | – | 1.08 ± 0.068 | 1.06 ± 0.083 | 0.987 ± 0.091 | – |
| 143B BONE | 0.997 ± 0.012 | – | – | 0.997 ± 0.012 | 0.811 ± 0.039 | 0.643 ± 0.061 | – | – | 1.042 ± 0.0078 | 1.03 ± 0.06 | 1.02 ± 0.042 | – | – | 1.002 ± 0.0092 | 1.02 ± 0.018 | 0.962 ± 0.012 |
| A549 LUNG | – | 0.942 ± 0.01 | – | 0.909 ± 0.0099 | 1.009 ± 0.0093 | 0.552 ± 0.031 | 0.994 ± 0.032 | 1.01 ± 0.027 | – | – | 1.12 ± 0.043 | 1.12 ± 0.055 | 1.01 ± 0.014 | 1.04 ± 0.064 | 0.949 ± 0.017 | 1.04 ± 0.02 |
| ASKA SYNOVIAL | 0.873 ± 0.092 | 0.773 ± 0.061 | 0.78 ± 0.035 | 0.69 ± 0.044 | 0.246 ± 0.014 | 0.249 ± 0.014 | 1.12 ± 0.019 | 1.18 ± 0.024 | 1.12 ± 0.028 | 1.15 ± 0.031 | 1.15 ± 0.014 | 1.01 ± 0.023 | 0.527 ± 0.028 | 0.415 ± 0.021 | 1.07 ± 0.063 | 0.954 ± 0.045 |
| BT20 BREAST | 0.82 ± 0.047 | 0.792 ± 0.032 | 0.808 ± 0.092 | 0.821 ± 0.071 | 0.786 ± 0.04 | 0.468 ± 0.078 | – | 1.07 ± 0.23 | 1.07 ± 0.23 | 1.01 ± 0.33 | 0.951 ± 0.3 | – | 1 ± 0.074 | 1 ± 0.052 | 1.04 ± 0.26 | – |
| BT549 BREAST | 0.76 ± 0.093 | 0.99 ± 0.11 | – | 0.905 ± 0.019 | – | 0.371 ± 0.042 | 1.2 ± 0.1 | 1.037 ± 0.01 | 1.15 ± 0.068 | 1.07 ± 0.081 | – | 1.09 ± 0.11 | 1.1 ± 0.073 | – | 1.11 ± 0.17 | 1.11 ± 0.16 |
| C33A CERVIX | 1.01 ± 0.068 | – | 1.08 ± 0.13 | 1.14 ± 0.059 | 0.565 ± 0.028 | 0.515 ± 0.011 | – | 1.08 ± 0.084 | 1.07 ± 0.075 | 1.18 ± 0.17 | 1.23 ± 0.17 | 1.21 ± 0.069 | 1.06 ± 0.044 | – | 1.1 ± 0.17 | 1.19 ± 0.13 |
| CADOES1 SOFT TISSUE | – | 0.89 ± 0.16 | 0.961 ± 0.088 | 0.936 ± 0.036 | 0.576 ± 0.054 | 0.291 ± 0.033 | 1.02 ± 0.062 | 0.862 ± 0.035 | – | 0.972 ± 0.15 | 0.947 ± 0.1 | – | 0.93 ± 0.042 | 0.941 ± 0.04 | – | 0.603 ± 0.19 |
| CAL51 BREAST | 0.958 ± 0.033 | 0.918 ± 0.099 | 1 ± 0.023 | 0.909 ± 0.049 | 0.215 ± 0.017 | 0.175 ± 0.0096 | 0.979 ± 0.04 | 0.9937 ± 0.0025 | 1.01 ± 0.022 | 1.12 ± 0.046 | 1.1 ± 0.05 | 1.02 ± 0.034 | 0.972 ± 0.046 | 0.949 ± 0.026 | 0.991 ± 0.014 | 0.977 ± 0.041 |
| CAL72 BONE | 1 ± 0.02 | 1.04 ± 0.024 | 1.02 ± 0.029 | – | 0.903 ± 0.025 | 0.9047 ± 0.0064 | 1.06 ± 0.031 | 1.09 ± 0.026 | 1.05 ± 0.048 | 1.13 ± 0.039 | 1.121 ± 0.0063 | 1.09 ± 0.041 | 1.09 ± 0.047 | 1.1 ± 0.013 | – | 1.08 ± 0.042 |
| CAL120 BREAST | 0.912 ± 0.011 | – | 0.908 ± 0.029 | 0.898 ± 0.02 | 0.676 ± 0.091 | 0.547 ± 0.013 | 0.959 ± 0.026 | 0.931 ± 0.025 | – | 1.02 ± 0.014 | 1.01 ± 0.038 | 0.973 ± 0.023 | – | 0.935 ± 0.017 | 0.9315 ± 0.0074 | 0.942 ± 0.032 |
| CASKI CERVIX | 0.829 ± 0.056 | 0.782 ± 0.081 | 0.816 ± 0.011 | – | 0.308 ± 0.018 | 0.303 ± 0.036 | 0.895 ± 0.04 | 0.983 ± 0.044 | 0.969 ± 0.019 | 1.13 ± 0.077 | 1.13 ± 0.075 | 1.05 ± 0.019 | 0.925 ± 0.022 | 0.88 ± 0.014 | 0.94 ± 0.054 | 0.865 ± 0.045 |
| CHLA90 AUTONOMIC GANGLIA | 0.996 ± 0.039 | – | 0.855 ± 0.042 | – | 0.479 ± 0.029 | 0.328 ± 0.023 | 0.992 ± 0.05 | – | 0.996 ± 0.037 | 1.13 ± 0.037 | 1.27 ± 0.062 | 1.38 ± 0.1 | 0.812 ± 0.037 | 0.785 ± 0.019 | 1.04 ± 0.039 | 1.5 ± 0.12 |
| CME SYNOVIAL | 0.902 ± 0.043 | – | 0.98 ± 0.25 | 0.902 ± 0.12 | 0.634 ± 0.054 | 0.272 ± 0.007 | 1.23 ± 0.11 | 1.28 ± 0.072 | 1.38 ± 0.075 | 1.28 ± 0.058 | 1.4 ± 0.12 | 1.27 ± 0.073 | 1.04 ± 0.04 | 1.06 ± 0.14 | 1.2 ± 0.07 | 1.15 ± 0.025 |
| COLO320DM LARGE INTESTINE | – | 1.13 ± 0.071 | 1.02 ± 0.041 | 0.977 ± 0.042 | 0.512 ± 0.0092 | 0.341 ± 0.011 | 1.13 ± 0.042 | 1.15 ± 0.029 | 1.07 ± 0.075 | 1.21 ± 0.14 | 1.11 ± 0.013 | 1.18 ± 0.2 | 1.05 ± 0.042 | 1.02 ± 0.027 | 1.06 ± 0.04 | 0.968 ± 0.074 |
| DU4475 BREAST | 0.798 ± 0.13 | 0.753 ± 0.041 | 0.83 ± 0.15 | 0.706 ± 0.14 | 0.423 ± 0.18 | 0.0877 ± 0.041 | 1.07 ± 0.35 | 0.927 ± 0.29 | 0.999 ± 0.18 | 0.819 ± 0.25 | 0.939 ± 0.46 | 0.906 ± 0.31 | 0.748 ± 0.089 | 0.722 ± 0.23 | 1.05 ± 0.2 | 0.769 ± 0.32 |
| H23 LUNG | 0.9503 ± 0.0081 | – | 0.963 ± 0.034 | – | 0.926 ± 0.049 | 0.688 ± 0.019 | 1.01 ± 0.03 | 1.06 ± 0.061 | 1.06 ± 0.033 | 1.32 ± 0.095 | 1.33 ± 0.031 | 1.38 ± 0.11 | 0.9953 ± 0.0047 | 0.993 ± 0.023 | – | 1.27 ± 0.073 |
| HCC78 LUNG | 0.898 ± 0.19 | 0.978 ± 0.1 | 1.05 ± 0.099 | 0.838 ± 0.16 | 0.166 ± 0.012 | 0.069 ± 0.021 | 0.864 ± 0.17 | – | 0.877 ± 0.085 | 1.02 ± 0.053 | – | 0.509 ± 0.068 | 0.421 ± 0.08 | 0.455 ± 0.15 | 0.826 ± 0.023 | 0.435 ± 0.098 |
| HCC202 BREAST | 1.31 ± 0.55 | 1.08 ± 0.25 | 1.31 ± 0.015 | 1.05 ± 0.069 | – | – | 1.23 ± 0.35 | 1.11 ± 0.18 | 1.02 ± 0.031 | 0.987 ± 0.055 | – | 0.897 ± 0.13 | 1.32 ± 0.23 | 1.37 ± 0.17 | – | 0.685 ± 0.15 |
| HCC1395 BREAST | 0.831 ± 0.14 | 0.74 ± 0.087 | 0.814 ± 0.074 | 0.838 ± 0.097 | – | 1 ± 0.089 | 1.11 ± 0.057 | 1.27 ± 0.049 | 1.16 ± 0.17 | 1.26 ± 0.034 | 1.24 ± 0.15 | 1.18 ± 0.21 | 1.01 ± 0.11 | 1 ± 0.065 | – | 1.12 ± 0.048 |
| HCC1806 BREAST | 0.818 ± 0.034 | 0.74 ± 0.067 | 0.87 ± 0.029 | – | 0.502 ± 0.022 | 0.273 ± 0.0078 | 0.985 ± 0.032 | 1.03 ± 0.059 | 0.771 ± 0.66 | 1.14 ± 0.099 | 1.05 ± 0.14 | 1 ± 0.11 | 1.06 ± 0.11 | 0.862 ± 0.018 | 0.78 ± 0.45 | 0.888 ± 0.081 |
| HCC1954 BREAST | 0.364 ± 0.042 | 0.353 ± 0.084 | 0.426 ± 0.06 | 0.401 ± 0.021 | 0.443 ± 0.11 | 0.4677 ± 0.0032 | 1.11 ± 0.15 | 1.02 ± 0.077 | 0.93 ± 0.27 | 1.22 ± 0.11 | 1.29 ± 0.039 | 1.3 ± 0.1 | 0.472 ± 0.019 | 0.473 ± 0.036 | – | 1.33 ± 0.14 |
| HCT15 LARGE INTESTINE | 0.88 ± 0.058 | 0.88 ± 0.054 | 0.895 ± 0.03 | – | 0.889 ± 0.042 | 0.165 ± 0.0046 | 0.955 ± 0.029 | 0.99 ± 0.026 | 0.982 ± 0.021 | 1.09 ± 0.052 | 1.09 ± 0.064 | – | 0.959 ± 0.024 | – | 0.989 ± 0.0099 | 1.06 ± 0.035 |
